In patent USRE48335E1, “Polymyxin derivatives as antimicrobial compounds” (priority 2014, dated 2020):
In brackets after ≈: the same amount, converted by molar mass. Positions of bridges follow the written chain, without caps; N, C: chain ends. Non-standard residues stand in square brackets, D forms with d. Residues, ends and D or L forms follow the SMILES beside them. *: point of attachment. Benzoyl(4-CF3) = O=C(c1ccc(C(F)(F)F)cc1)*; Heptanoyl(6-Me) = CC(C)CCCCC(=O)*; dNva = CCC[C@@H](N)C(=O)O; Heptanoyl = CCCCCCC(=O)*; Octanoyl = CCCCCCCC(=O)*; Orn = NCCC[C@H](N)C(=O)O; Dab = NCC[C@H](N)C(=O)O; Abu = CC[C@H](N)C(=O)O; Dap = NC[C@H](N)C(=O)O; Hexanoyl = CCCCCC(=O)*

What was measured:
[1] = test system: Acinetobacter baumannii
Outline: (§1)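 Lipopeptides, as trifluoroacetate salts, tested for MIC in CAMHB by CLSI broth microdilution, with polymyxin B (sulphate) as comparator.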

[2] = test system: Enterobacter cloacae
Outline: as §1

[3] = test system: Pseudomonas aeruginosa
Outline: as §1

SMILES	Minimum inhibitory concentration, Ab A ATCC 17978 [1]	Minimum inhibitory concentration, Ab ATCC 19606 [1]	Minimum inhibitory concentration, Ab FADDI-AB034 [1]	Minimum inhibitory concentration, Ec FADDI-EC001 [2]	Minimum inhibitory concentration, Ec FADDI-EC003 [2]	Minimum inhibitory concentration, Ec FADDI-EC006 [2]	Minimum inhibitory concentration, Pa ATCC 27853 [3]	Minimum inhibitory concentration, Pa FADDI-PA022 [3]	Minimum inhibitory concentration, Pa FADDI-PA025 [3]
CCCCCCCC(=O)N[C@@H](CCN)C(=O)N[C@H](C(=O)N[C@@H](CN)C(=O)N[C@H]1CCNC(=O)[C@H]([C@@H](C)O)NC(=O)[C@H](CCN)NC(=O)[C@H](CCCN)NC(=O)[C@H]([C@@H](C)O)NC(=O)[C@@H](CC(C)C)NC(=O)[C@H](CCN)NC1=O)[C@@H](C)O [Compound 54] (Octanoyl-[Dab]T[Dap][Dab][Dab][dL]T[Orn][Dab]T; lactam 4-C)	0.5 µg/mL (≈ 0.437 µM)	0.5 µg/mL (≈ 0.437 µM)	0.25 µg/mL (≈ 0.219 µM)	<0.125 µg/mL	<0.125 µg/mL	0.25 µg/mL (≈ 0.219 µM)	4 µg/mL (≈ 3.5 µM)	2 µg/mL (≈ 1.75 µM)	16 µg/mL (≈ 14 µM)
CCCCCCCC(=O)N[C@@H](CCN)C(=O)N[C@H](C(=O)N[C@@H](CN)C(=O)N[C@H]1CCNC(=O)[C@H]([C@@H](C)O)NC(=O)[C@H](CCN)NC(=O)[C@H](CCN)NC(=O)[C@H]([C@@H](C)O)NC(=O)[C@@H](CC(C)C)NC(=O)[C@H](CCCN)NC1=O)[C@@H](C)O [Compound 55] (Octanoyl-[Dab]T[Dap][Dab][Orn][dL]T[Dab][Dab]T; lactam 4-C)	>32 µg/mL	>32 µg/mL	>32 µg/mL	1 µg/mL (≈ 0.875 µM)	4 µg/mL (≈ 3.5 µM)	>32 µg/mL	>32 µg/mL	>32 µg/mL	>32 µg/mL
CC(C)C[C@H]1NC(=O)[C@H](CCN)NC(=O)[C@@H](NC(=O)[C@H](CN)NC(=O)[C@@H](NC(=O)[C@H](CCN)NC(=O)c2ccc(C(F)(F)F)cc2)[C@@H](C)O)CCNC(=O)[C@H]([C@@H](C)O)NC(=O)[C@H](CCN)NC(=O)[C@H](CCN)NC(=O)[C@H]([C@@H](C)O)NC1=O [Compound 56] ({Benzoyl(4-CF3)}-[Dab]T[Dap][Dab][Dab][dL]T[Dab][Dab]T; lactam 4-C)	1 µg/mL (≈ 0.851 µM)	2 µg/mL (≈ 1.7 µM)	1 µg/mL (≈ 0.851 µM)	<0.125 µg/mL	<0.125 µg/mL	0.25 µg/mL (≈ 0.213 µM)	0.5 µg/mL (≈ 0.425 µM)	2 µg/mL (≈ 1.7 µM)	4 µg/mL (≈ 3.4 µM)
CCCCCCCC(=O)N[C@@H](CCN)C(=O)N[C@H](C(=O)N[C@@H](CCN)C(=O)N[C@H]1CCNC(=O)[C@H]([C@@H](C)O)NC(=O)[C@H](CCN)NC(=O)[C@H](CCN)NC(=O)[C@H](CC)NC(=O)[C@@H](CC(C)C)NC(=O)[C@H](CCN)NC1=O)[C@@H](C)O [Compound 60] (Octanoyl-[Dab]T[Dab][Dab][Dab][dL][Abu][Dab][Dab]T; lactam 4-C)	0.5 µg/mL (≈ 0.443 µM)	1 µg/mL (≈ 0.887 µM)	0.5 µg/mL (≈ 0.443 µM)	<0.125 µg/mL	<0.125 µg/mL	0.5 µg/mL (≈ 0.443 µM)	0.5 µg/mL (≈ 0.443 µM)	0.5 µg/mL (≈ 0.443 µM)	8 µg/mL (≈ 7.1 µM)
CCCCCCC(=O)N[C@@H](CCN)C(=O)N[C@H](C(=O)N[C@@H](CN)C(=O)N[C@H]1CCNC(=O)[C@H]([C@@H](C)O)NC(=O)[C@H](CCN)NC(=O)[C@H](CCN)NC(=O)[C@H](C)NC(=O)[C@@H](CC(C)C)NC(=O)[C@H](CCN)NC1=O)[C@@H](C)O [Compound 63] (Heptanoyl-[Dab]T[Dap][Dab][Dab][dL]A[Dab][Dab]T; lactam 4-C)	1 µg/mL (≈ 0.921 µM)	2 µg/mL (≈ 1.84 µM)	1 µg/mL (≈ 0.921 µM)	0.5 µg/mL (≈ 0.461 µM)	<0.125 µg/mL	0.5 µg/mL (≈ 0.461 µM)	0.5 µg/mL (≈ 0.461 µM)	2 µg/mL (≈ 1.84 µM)	>32 µg/mL
CCCCCCC(=O)N[C@@H](CCN)C(=O)N[C@H](C(=O)N[C@@H](CN)C(=O)N[C@H]1CCNC(=O)[C@H]([C@@H](C)O)NC(=O)[C@H](CCN)NC(=O)[C@H](CCN)NC(=O)[C@H](CC)NC(=O)[C@@H](CC(C)C)NC(=O)[C@H](CCN)NC1=O)[C@@H](C)O [Compound 64] (Heptanoyl-[Dab]T[Dap][Dab][Dab][dL][Abu][Dab][Dab]T; lactam 4-C)	0.5 µg/mL (≈ 0.455 µM)	0.5 µg/mL (≈ 0.455 µM)	1 µg/mL (≈ 0.91 µM)	0.5 µg/mL (≈ 0.455 µM)	<0.125 µg/mL	0.25 µg/mL (≈ 0.227 µM)	1 µg/mL (≈ 0.91 µM)	2 µg/mL (≈ 1.82 µM)	8 µg/mL (≈ 7.28 µM)
CC(C)CCCCC(=O)N[C@@H](CCN)C(=O)N[C@H](C(=O)N[C@@H](CN)C(=O)N[C@H]1CCNC(=O)[C@H]([C@@H](C)O)NC(=O)[C@H](CCN)NC(=O)[C@H](CCN)NC(=O)[C@H](C)NC(=O)[C@@H](CC(C)C)NC(=O)[C@H](CCN)NC1=O)[C@@H](C)O [Compound 65] ({Heptanoyl(6-Me)}-[Dab]T[Dap][Dab][Dab][dL]A[Dab][Dab]T; lactam 4-C)	0.25 µg/mL (≈ 0.227 µM)	0.5 µg/mL (≈ 0.455 µM)	1 µg/mL (≈ 0.91 µM)	0.5 µg/mL (≈ 0.455 µM)	<0.125 µg/mL	0.25 µg/mL (≈ 0.227 µM)	1 µg/mL (≈ 0.91 µM)	2 µg/mL (≈ 1.82 µM)	16 µg/mL (≈ 14.6 µM)
CC[C@@H]1NC(=O)[C@@H](CC(C)C)NC(=O)[C@H](CCN)NC(=O)[C@@H](NC(=O)[C@H](CN)NC(=O)[C@@H](NC(=O)[C@H](CCN)NC(=O)CCCCC(C)C)[C@@H](C)O)CCNC(=O)[C@H]([C@@H](C)O)NC(=O)[C@H](CCN)NC(=O)[C@H](CCN)NC1=O [Compound 66] ({Heptanoyl(6-Me)}-[Dab]T[Dap][Dab][Dab][dL][Abu][Dab][Dab]T; lactam 4-C)	0.25 µg/mL (≈ 0.225 µM)	0.25 µg/mL (≈ 0.225 µM)	0.5 µg/mL (≈ 0.449 µM)	0.5 µg/mL (≈ 0.449 µM)	<0.125 µg/mL	0.25 µg/mL (≈ 0.225 µM)	1 µg/mL (≈ 0.898 µM)	2 µg/mL (≈ 1.8 µM)	4 µg/mL (≈ 3.59 µM)
CCCCCC(=O)N[C@@H](CCN)C(=O)N[C@H](C(=O)N[C@@H](CN)C(=O)N[C@H]1CCNC(=O)[C@H]([C@@H](C)O)NC(=O)[C@H](CCN)NC(=O)[C@H](CCN)NC(=O)[C@H](C)NC(=O)[C@@H](CC(C)C)NC(=O)[C@H](CCN)NC1=O)[C@@H](C)O [Compound 67] (Hexanoyl-[Dab]T[Dap][Dab][Dab][dL]A[Dab][Dab]T; lactam 4-C)	2 µg/mL (≈ 1.87 µM)	4 µg/mL (≈ 3.73 µM)	4 µg/mL (≈ 3.73 µM)	<0.125 µg/mL	0.25 µg/mL (≈ 0.233 µM)	0.5 µg/mL (≈ 0.467 µM)	0.5 µg/mL (≈ 0.467 µM)	0.5 µg/mL (≈ 0.467 µM)	2 µg/mL (≈ 1.87 µM)
CCCCCC(=O)N[C@@H](CCN)C(=O)N[C@H](C(=O)N[C@@H](CN)C(=O)N[C@H]1CCNC(=O)[C@H]([C@@H](C)O)NC(=O)[C@H](CCN)NC(=O)[C@H](CCN)NC(=O)[C@H](CC)NC(=O)[C@@H](CC(C)C)NC(=O)[C@H](CCN)NC1=O)[C@@H](C)O [Compound 68] (Hexanoyl-[Dab]T[Dap][Dab][Dab][dL][Abu][Dab][Dab]T; lactam 4-C)	1 µg/mL (≈ 0.921 µM)	2 µg/mL (≈ 1.84 µM)	1 µg/mL (≈ 0.921 µM)	0.25 µg/mL (≈ 0.23 µM)	<0.125 µg/mL	<0.125 µg/mL	0.5 µg/mL (≈ 0.461 µM)	0.5 µg/mL (≈ 0.461 µM)	2 µg/mL (≈ 1.84 µM)
CCCCCCCC(=O)N[C@@H](CCN)C(=O)N[C@H](C(=O)N[C@@H](CN)C(=O)N[C@H]1CCNC(=O)[C@H]([C@@H](C)O)NC(=O)[C@H](CCN)NC(=O)[C@H](CCN)NC(=O)[C@H](CC)NC(=O)[C@@H](CCC)NC(=O)[C@H](CCN)NC1=O)[C@@H](C)O [Compound 69] (Octanoyl-[Dab]T[Dap][Dab][Dab][dNva][Abu][Dab][Dab]T; lactam 4-C)	0.5 µg/mL (≈ 0.455 µM)	0.5 µg/mL (≈ 0.455 µM)	0.25 µg/mL (≈ 0.227 µM)	0.25 µg/mL (≈ 0.227 µM)	<0.125 µg/mL	<0.125 µg/mL	0.5 µg/mL (≈ 0.455 µM)	0.5 µg/mL (≈ 0.455 µM)	8 µg/mL (≈ 7.28 µM)
